Legend:
[1] = tested on: Mycobacterium tuberculosis; test: Antimycobacterial activity against Mycobacterium tuberculosis H37Rv infected in CF-1 mouse assessed as change in survival time at 5 mg/kg administrated daily for 14 days with food relative to control; assay type: functional
[2] = tested on: Mycobacterium tuberculosis; test: Antimycobacterial activity against Mycobacterium tuberculosis H37Rv infected in CF-1 mouse assessed as change in survival time at 3 mg/kg administrated daily for 14 days with food relative to control; assay type: functional
[3] = tested on: Mycobacterium tuberculosis; test: Antimycobacterial activity against Mycobacterium tuberculosis H37Rv infected in CF-1 mouse assessed as change in survival time at 24 mg/kg administrated daily for 14 days with food relative to control; assay type: functional
[4] = tested on: Mycobacterium tuberculosis; test: Antimycobacterial activity against Mycobacterium tuberculosis H37Rv infected in CF-1 mouse assessed as change in survival time at 12 mg/kg administrated daily for 14 days with food relative to control; assay type: functional
[5] = tested on: Mycobacterium tuberculosis; test: Antitubercular activity against Mycobacterium tuberculosis H37Rv ATCC 27294 assessed as growth inhibition at 12.5 ug/ml by microplate alamar blue assay relative to control; assay type: functional
[6] = Selectivity index, ratio of IC50 for African green monkey Vero cells to MIC for antitubercular activity against Mycobacterium tuberculosis H37Rv; assay type: toxicity; conditions: vero
[7] = tested on: Mycobacterium tuberculosis; test: Antitubercular activity against Mycobacterium tuberculosis H37Rv ATCC 27294 assessed as inhibition of [3H]-thymidine incorporation relative to control; assay type: functional
Vero = test: Cytotoxicity against African green monkey Vero cells incubated for 72 hrs by MTT assay; assay type: cell-based, Chlorocebus sabaeus
Mycobacterium leprae [8] = test: Antimicrobial activity against Mycobacterium leprae assessed as microbial growth at 0.0938 ug/ml in presence of 0.1 ug/ml rifampin measured at 4 weeks (reference value: 147 +/- 19.1%); assay type: functional
Mycobacterium leprae [9] = test: Antimicrobial activity against Mycobacterium leprae assessed as microbial growth at 0.0469 ug/ml in presence of 0.2 ug/ml rifampin measured at 4 weeks (reference value: 147 +/- 19.1%); assay type: functional
Mycobacterium leprae [10] = test: Antimicrobial activity against Mycobacterium leprae assessed as fractional inhibitory concentration index at 0.0469 ug/ml in presence of 0.0062 ug/ml KRM-1648 measured at 4 weeks; assay type: functional
Mycobacterium leprae [11] = test: Antimicrobial activity against Mycobacterium leprae assessed as microbial growth at 0.0938 ug/ml in presence of 0.2 ug/ml rifampin measured at 4 weeks (reference value: 147 +/- 19.1%); assay type: functional
Mycobacterium leprae [12] = test: Antimicrobial activity against Mycobacterium leprae assessed as fractional inhibitory concentration index at 0.0469 ug/ml in presence of 0.05 ug/ml rifabutin measured at 4 weeks; assay type: functional
Mycobacterium leprae [13] = test: Antimicrobial activity against Mycobacterium leprae assessed as microbial growth at 0.0469 ug/ml in presence of 0.0031 ug/ml KRM-1648 measured at 4 weeks (reference value: 147 +/- 19.1%); assay type: functional
Mycobacterium leprae [14] = test: Antimicrobial activity against Mycobacterium leprae assessed as microbial growth at 0.0469 ug/ml in presence of 0.0062 ug/ml KRM-1648 measured at 4 weeks (reference value: 147 +/- 19.1%); assay type: functional
Mycobacterium leprae [15] = test: Antimicrobial activity against Mycobacterium leprae assessed as microbial growth at 0.0469 ug/ml in presence of 0.05 ug/ml rifabutin measured at 4 weeks (reference value: 147 +/- 19.1%); assay type: functional
Mycobacterium leprae [16] = test: Antimicrobial activity against Mycobacterium leprae assessed as microbial growth at 0.0469 ug/ml in presence of 0.025 ug/ml rifabutin measured at 4 weeks (reference value: 147 +/- 19.1%); assay type: functional
Mycobacterium leprae [17] = test: Antimicrobial activity against Mycobacterium leprae assessed as fractional inhibitory concentration index at 0.0938 ug/ml in presence of 0.2 ug/ml rifampin measured at 4 weeks; assay type: functional

Compound `COc1ccc(/N=N/c2ccc(NCCCN3CCCCC3)c3c2CCCC3)cn1` has an MST [1] of 13 days, an MST [2] of 10 days and an MST [3] of 46 days. The MST [4] was 31 days.
For `Clc1nc(-c2ccccc2)c2ncn(Cc3ccccc3)c2n1`, the inhibition at 12.5 µg/mL [5] was > 90%, the “Selectivity Index” value [6] was “Nd(Insoluble)” and the “inhibition (INH)” value [7] was 76%. For the same compound, the IC50 (Vero) was “Nd(Insoluble)”.
With `N[C@@H]1CN(c2c(F)cc3c(=O)c(C(=O)O)cn([C@@H]4C[C@@H]4F)c3c2Cl)CC12CC2` [SITAFLOXACIN ANHYDROUS] the Activity (Mycobacterium leprae [8]) was 124%, the Activity (Mycobacterium leprae [9]) was 138% and the “fractional inhibitory concentration index (FICI)” value (Mycobacterium leprae [10]) was 0.375. The Activity (Mycobacterium leprae [11]) was 0%, the “fractional inhibitory concentration index (FICI)” value (Mycobacterium leprae [12]) was 0.5 and the Activity (Mycobacterium leprae [13]) was 89%. For the same compound, the Activity (Mycobacterium leprae [14]) was 0%, the Activity (Mycobacterium leprae [15]) was 0% and the Activity (Mycobacterium leprae [16]) was 141%. The “fractional inhibitory concentration index (FICI)” value (Mycobacterium leprae [17]) was 1.

Source: ChEMBL document CHEMBL4613212, “Insights of synthetic analogues of anti-leprosy agents” (Bioorg Med Chem, 2019)
